Data on 18 compounds can be found in article PMC5330453, “Synthesis and biological evaluation of dihydropyrano-[2,3-c]pyrazoles as a new class of PPARγ partial agonists” (PLoS ONE, 2017).

Each structure is given as a SMILES string. Several values for one entry are separate records, joined by “and”; a condition that tells them apart may be missing. Equal entries are not always repeated. Where two headings read alike, the source gives them in different places.

The test system of one test is PPARγ. Further details: method as in PMID 23432662. To be noted: earlier study; read-out: inhibitor activity IC50; cited from earlier work.
For test [1], the target named is T1, hPPARγ LBD (Homo sapiens, UniProt P37231).
T1 sequence (P37231 238-503 limits assumed): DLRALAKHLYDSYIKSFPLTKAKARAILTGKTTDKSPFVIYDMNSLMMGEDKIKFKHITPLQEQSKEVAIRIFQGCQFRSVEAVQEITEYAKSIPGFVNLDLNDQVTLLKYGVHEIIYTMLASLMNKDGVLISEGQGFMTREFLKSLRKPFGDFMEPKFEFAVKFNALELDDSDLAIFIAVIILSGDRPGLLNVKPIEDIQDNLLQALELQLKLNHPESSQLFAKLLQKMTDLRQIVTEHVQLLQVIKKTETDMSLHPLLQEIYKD
Nature of the test: TR-FRET competitive binding assay (LanthaScreen), displacement of a fluorescent pan PPAR agonist tracer. The note with it: GST-tagged PPARγ-LBD, 10 concentrations 3 nM to 500 μM, triplicate.
Description: IC50 values for respective compounds were determined by competitive binding using time-resolved fluorescence resonance energy transfer (LanthaScreen, Invitrogen) on a Victor2 microplate reader (PerkinElmer). Briefly, a terbium labeled anti-GST antibody was used to label purified GST-tagged PPARγ-LBD (ligand binding domain). Energy transfer from terbium to the tracer, a fluorescent pan PPAR agonist, enabled read-out of each test compounds’s ability to displace the tracer. RFU values from dose-response curves (triplicate sampling) for test compounds as well as positive controls (rosiglitazone) were then analyzed using GraphPad Prism [33]. An unrestrained sigmoidal (one-binding site) dose-response curve was fitted to each data set by linear regression and allowing for determination of IC50 values.

For test [2], the system named is adipocyte differentiation. Also noted: method as in PMID 23432662. To be noted: earlier study; cited from earlier work.
Test [3] deals with T1, hPPARγ LBD. Nature of the test: Nuclear receptor-LBD transactivation (Gal4-LBD luciferase reporter) in mouse embryo fibroblasts. The test is classed as cell-based. Also noted: expressed in transfected cells; host or cells: mouse embryo fibroblasts (MEFs). The note with it: for transactivation selectivity towards all three PPAR subtypes: compared with PPARα and PPARδ transactivation; for induction of transcriptional activation (in words): cell based transactivation assay. From the text: Mouse embryo fibroblasts (MEFs) were propagated in Dulbeccos Modified Eagle’s Media (DMEM) supplemented with 10% FCS and antibiotics.
Cells (Hepa 1–6 were used for PPARα whereas MEFs were used for PPARγ, PPARδ and RXRα transfections) were transfected in solution by Metafectene (Biontex) lipofection, essentially according to the manufacturer’s instructions and seeded in media (MEM or DMEM supplemented with 10% fetal calf serum and antibiotics in 96-well dishes at 24000 cells/cm^2. The transfection plasmid mix included the Gal4-responsive luciferase reporter, the expression vector for the fusion between the Gal4 DNA-binding domain and the nuclear receptor ligand binding domains, and a CMV-Renilla luciferase normalization vector (pRL-CMV, Promega). Six hours after addition of transfection mix to the cells, the media was changed to media (MEM or DMEM) supplemented with vehicle (0.1% DMSO), positive control (1 μM Rosiglitazone, 30 nM GW7647, 1 μM L165041 or 0.2 μM LG1069 for PPARγ, PPARα, PPARδ and RXRα, respectively), or compound. Approx. 18 hours later, cells were harvested and lysates analyzed for Photinus and Renilla luciferase activity by luminometry. All data points were performed in at least triplicate and each sample measured in duplicate. Luminometer raw data was analyzed in Microsoft Excel spreadsheets and presented as column graphs depicting average values of triplicates and including standard deviations.

Where [4] appears, read: hPPARγ LBD ligand displacement IC50, TR-FRET.
Where [5] appears, read: read-out: hPPARγ LBD ligand displacement IC50, TR-FRET.

On to `Cc1cc(C)c([C@@H]2C(C#N)=C(N)Oc3n[nH]c(C)c32)cc1COc1ccc(Cl)cc1C` (stereo in doubt) [compound 4], for which the IC50 with PPARγ was 30 µM; on hPPARγ LBD [1] (setting [4]), 32 µM. Also, the “induction of adipocyte differentiation” value in test [2] is listed as “relatively poor induction of adipocyte differentiation”.
Consider `Cc1ccc(C2C(C#N)=C(N)Oc3[nH]nc(C)c32)c(C)c1` (centres unmarked) [10aa, 6-Amino-4-(2,4-dimethylphenyl)-3-methyl-1,4-dihydropyrano[2,3-c]pyrazole-5-carbonitrile], for which the IC50 on hPPARγ LBD [1] (setting [4]) was 407 µM and > 100 µM.
Consider `Cc1nn(-c2ccccc2)c2c1C(c1ccccc1)C(C#N)=C(N)O2` (centres unmarked) [10ad, 6-Amino-3-methyl-1,4-diphenyl-1,4-dihydropyrano[2,3-c]pyrazole-5-carbonitrile], for which the IC50 at hPPARγ LBD [1] (setting [4]) was 215 µM and > 100 µM.
As to `Cc1ccc(C)c(C2C(C#N)=C(N)Oc3c2c(C)nn3-c2ccc(Cl)cc2)c1` (centres unmarked) [10ae, 6-Amino-1-(4-chlorophenyl)-4-(2,5-dimethylphenyl)-3-methyl-1,4-dihydropyrano[2,3-c]pyrazole-5-carbonitrile], the IC50 on hPPARγ LBD [1] (setting [4]) is 0.52 µM and ≤ 1 µM. The “transactivation selectivity towards all three PPAR subtypes” value on hPPARγ LBD [3] is listed as “selective against PPARγ”.
In the case of `Cc1ccccc1C1C(C#N)=C(N)Oc2c1c(C)nn2-c1ccc(Cl)cc1` (centres unmarked) [10af], on hPPARγ LBD [1] (setting [5]), the IC50 is ≤ 1 µM. Besides, the “transactivation selectivity towards all three PPAR subtypes” value at hPPARγ LBD [3] was “selective against PPARγ”.
Consider `Cc1nn(-c2ccccc2)c2c1C(c1ccc(Cl)cc1Cl)C(C#N)=C(N)O2` (centres unmarked) [10ag, 6-Amino-4-(2,4-dichlorophenyl)-3-methyl-1-phenyl-1,4-dihydropyrano[2,3-c]pyrazole-5-carbonitrile], for which the IC50 at hPPARγ LBD [1] (setting [4]) came out at 14 µM.
`Cc1ccccc1C1C(C#N)=C(N)Oc2[nH]nc(Cc3ccccc3)c21` (centres unmarked) [10b, 6-Amino-3-benzyl-5(o-tolyl)-1,4-dihydropyrano[2,3-c]pyrazole-5-carbonitrile] registered an IC50 at hPPARγ LBD [1] (setting [4]) of 15.7 µM. The “induction of transcriptional activation (in words)” value at hPPARγ LBD [3] is listed as “did not induce transcriptional activation”.
For `Cc1ccc(C2C(C#N)=C(N)Oc3[nH]nc(Cc4ccccc4)c32)c(C)c1` (centres unmarked) [10c, 6-Amino-3-benzyl-4-(2,4-dimethylphenyl)-1,4-dihydropyrano[2,3-c]pyrazole-5-carbonitrile], the IC50 on hPPARγ LBD [1] (setting [4]) is 104 µM and > 100 µM.
On to `Cc1nn(-c2ccccc2)c2c1C(c1ccc(Cl)cc1Cl)C(C#N)=C(N)O2` (centres unmarked) [10f], for which, on hPPARγ LBD [3], the “induction of transcriptional activation (in words)” value is “did not induce transcriptional activation”.
In the case of `Cc1ccc(C)c(C2C(C#N)=C(N)Oc3[nH]nc(-c4ccccc4)c32)c1` (centres unmarked) [10g], on hPPARγ LBD [1] (setting [5]), the IC50 is > 100 µM.
Consider `N#CC1=C(N)Oc2[nH]nc(-c3ccccc3)c2C1c1ccccc1` (centres unmarked) [10h, 6-Amino-3,4-diphenyl-1,4-dihydropyrano[2,3-c]pyrazole-5-carbonitrile], for which the IC50 on hPPARγ LBD [1] (setting [4]) was 173 µM and > 100 µM.
For the compound `Cc1ccc(C2C(C#N)=C(N)Oc3[nH]nc(-c4ccccc4)c32)c(C)c1` (centres unmarked) [10i, 6-Amino-4-(2,4-dimethylphenyl)-3-phenyl-1,4-dihydropyrano[2,3-c]pyrazole-5-carbonitrile], the concentration for half-maximal inhibition (IC50) on hPPARγ LBD [1] (setting [4]) stood at 75 µM.
For `CCCc1n[nH]c2c1C(c1ccc(C)cc1C)C(C#N)=C(N)O2` (centres unmarked) [10m, 6-Amino-4-(2,4-dimethylphenyl)-3-propyl-1,4-dihydropyrano[2,3-c]pyrazole-5-carbonitrile], the IC50 at hPPARγ LBD [1] (setting [4]) came out at 14 µM.
Take `CCCc1n[nH]c2c1C(c1ccc(Cl)cc1)C(C#N)=C(N)O2` (centres unmarked) [10n, 6-Amino-4-(4-chlorophenyl)-3-propyl-1,4-dihydropyrano[2,3-c]pyrazole-5-carbonitrile]: the IC50 on hPPARγ LBD [1] (setting [4]) is 31 µM.
Consider `CCCc1n[nH]c2c1C(c1cc(C)ccc1C)C(C#N)=C(N)O2` (centres unmarked) [10p, 6-Amino-4-(2,5-dimethylphenyl)-3-propyl-1,4-dihydropyrano[2,3-c]pyrazole-5-carbonitrile], for which the IC50 at hPPARγ LBD [1] (setting [4]) is 91 µM.
For the compound `Cc1cc(C)c(C2C(C#N)=C(N)Oc3[nH]nc(C)c32)cc1COc1ccc(Cl)c2cccnc12` (centres unmarked) [10s, 6-Amino-4-(5-(((5-chloroquinolin-8-yl)oxy)methyl)-2,4-dimethylphenyl)-3-methyl-1,4-dihydropyrano[2,3-c]pyrazole-5-carbonitrile], the IC50 on hPPARγ LBD [1] (setting [4]) is 14 µM.
On hPPARγ LBD [1] (setting [4]), `Cc1n[nH]c2c1C(c1ccc(Cl)cc1Cl)C(C#N)=C(N)O2` (centres unmarked) [10x, 6-Amino-4-(2,4-dichlorophenyl)-3-methyl-1,4-dihydropyrano[2,3-c]pyrazole-5-carbonitrile] returned an IC50 of 59 µM.
At hPPARγ LBD [1] (setting [4]), `COc1ccc(C2C(C#N)=C(N)Oc3[nH]nc(C)c32)c(C)c1C` (centres unmarked) [10y, 6-Amino-4-(4-methoxy-2,3-dimethylphenyl)-3-methyl-1,4-dihydropyrano[2,3-c]pyrazole-5-carbonitrile] registered a 50% inhibitory concentration (IC50) of 87 µM.
